# Peptide text beside a SMILES is read from it. * marks the point of attachment. Decanoyl = CCCCCCCCCC(=O)*; CH2Cl = ClC*
# How the values were obtained:
# Format in all cases: cell-based
# Furin [1] = target: T1, Furin (Homo sapiens, UniProt P09958); test: flow cytometry of FLAG surface expression in SupT1 clones stably expressing the wt gp120/gp41 boundary scaffold; settings: SupT1 clones expressing wt gp120/41 boundary, FITC anti-FLAG, 0.9% without inhibitor
# T1 construct: endogenous in cells; host or cells: SupT1 T-cell clones stably transduced with pBMN-gp160 min-wt
# T1 sequence (P09958 108-794): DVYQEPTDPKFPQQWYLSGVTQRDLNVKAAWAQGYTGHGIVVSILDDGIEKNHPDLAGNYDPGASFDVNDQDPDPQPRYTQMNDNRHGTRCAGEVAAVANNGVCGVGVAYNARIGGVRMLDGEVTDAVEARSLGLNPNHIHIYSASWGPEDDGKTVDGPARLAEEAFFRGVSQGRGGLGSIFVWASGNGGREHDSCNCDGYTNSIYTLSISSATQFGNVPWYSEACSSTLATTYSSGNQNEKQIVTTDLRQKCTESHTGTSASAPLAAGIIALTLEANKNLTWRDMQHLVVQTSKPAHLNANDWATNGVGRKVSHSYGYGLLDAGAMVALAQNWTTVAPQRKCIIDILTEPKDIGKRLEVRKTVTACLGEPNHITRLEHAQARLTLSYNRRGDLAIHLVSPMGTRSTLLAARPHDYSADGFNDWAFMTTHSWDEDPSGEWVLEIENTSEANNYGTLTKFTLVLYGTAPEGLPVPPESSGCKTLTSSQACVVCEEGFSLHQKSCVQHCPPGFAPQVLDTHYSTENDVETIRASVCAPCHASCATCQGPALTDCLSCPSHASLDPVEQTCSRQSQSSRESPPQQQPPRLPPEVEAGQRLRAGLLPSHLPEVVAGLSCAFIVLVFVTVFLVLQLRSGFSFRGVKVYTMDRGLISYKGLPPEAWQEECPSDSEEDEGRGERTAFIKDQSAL
# Source text: In alternative embodiments, cell-based assays of the invention comprise use of a double-tagged engineered scaffold (of the invention) that allows discrimination between cleaved and non-cleaved events based on the cell surface expression of one or two tags, respectively. In alternative embodiments the scaffold protein travels to the cell surface and retains the FLAG tag only when processing of the gp120/gp41 boundary within the gp160 Env precursor is inhibited, e.g., by a putative drug. […]
# Clonal populations should drastically increase robustness as 100% of the cells are expected to express the assay scaffold. […] Selected clones sorted into a 96-well plate, were amplified for a period of one month and analyzed by flow cytometry and fluorescence microscopy. […]
# For that purpose, clones expressing the wt gp120/41 boundary were analyzed by flow cytometry following incubation with increasing concentration of the Furin inhibitor DCK. […] The same clones, treated with 50 mM DCK, were further analyzed by fluorescence microscopy prior and following incubation with 50 mM DCK. […]
# Flow cytometry and sorting: Flow cytometry is performed on a BD FACSAria™ and/or FACSCanto (SDSU FACS core facility) with 488 nm and 633 nm lasers. Data is collected using FACSDiva 6.1.1™ software (BD Biosciences. San Jose, Calif.) and analyzed by FLOWJO™ (Tree Star, Inc., Ashland, Oreg.).
# Furin [2] = target: T1, Furin; test: fluorescence microscopy (HA-FITC, FLAG-CY3) of SupT1 clones stably expressing the wt gp120/gp41 boundary scaffold; settings: 50 mM DCK
# Method: For that purpose, clones expressing the wt gp120/41 boundary were analyzed by flow cytometry following incubation with increasing concentration of the Furin inhibitor DCK. FLAG surface expression is progressively recovered at 10 mM and 50 mM DCK, increasing form 0.9% to 39% and then 90% (FIG. 7). The same clones, treated with 50 mM DCK, were further analyzed by fluorescence microscopy prior and following incubation with 50 mM DCK. The mutant version was used as control.
# FIG. 8 illustrates: Fluorescence microscopy images of SupT1 clones stably expressing the assay (as with FIGS. 5, 6 and 7, above). Clones expressing wild type (wt) or mutant version of the boundary were analyzed with HA-FITC and FLAG-CY3. Visible light, individual channels and merge are shown. I: Inhibitor, BF: Bright Field.
# [3] = system: cleavage of wildtype HIV-1 envelope boundary by Furin or similar enzymes; test: multiplexed tdTomato-barcoded SupT1 flow cytometry assay, wildtype HIV-1 envelope boundary substrate; settings: DCK treatment; wildtype HIV-1 envelope boundary population
# Source text: (§1) As example, FIG. 15 schematically illustrates a fluorescent flow cytometry analysis of three SupT1 T cell lines, each carrying a different substrate within the context of the assay elements. The distinct cell lines were previously genetically barcoded with different levels of tdTomato fluorescent protein. In that manner, the assay cells, when analyzed for tdTomato in the PE channel (FIG. 15A, panel A) show three populations (negative, dim, and bright tdTomato). […] The HA positive/FLAG positive population reveal Population 2 (dim for tdTomato expressing the mutant HIV envelope boundary; env-mut (R511S)).
# (§2) FIG. 16 schematically illustrates a fluorescent flow cytometry analysis in the PE channel for td Tomato expression and FITC channel for FLAG expression. As a reminder, in the assay the second tag (FLAG here) is lost if cleavage occurs while the scaffold protein travels to the cell surface. […] When stained for FLAG, only population 2 (mutant HIV-1 boundary) retains the tag, while wild type HIV-1 boundary and DenV pr-M, as expected, lost it.
# (§3) In alternative embodiments, exemplary assays of the invention are used for drug discovery. As a proof of principle, the same experiment with the three bar-coded populations was repeated in the presence of DCK, an inhibitor of Furin and similar protein convertases that are active in the Golgi/TransGolgi network. […]
# [4] = system: cleavage of DenV pr-M boundary; test: multiplexed tdTomato-barcoded SupT1 flow cytometry assay, DenV pr-M boundary substrate; settings: DCK treatment; DenV pr-M population
# Source text: as §1, §2, §3
structure (smiles),measurement,setting,value
CCCCCCCCCC(=O)N[C@@H](CCCN=C(N)N)C(=O)N[C@H](C(=O)N[C@@H](CCCCN)C(=O)N[C@@H](CCCN=C(N)N)C(=O)CCl)C(C)C [DCK] (Decanoyl-RVKR-CH2Cl),FLAG surface expression,Furin [1]; 10 mM DCK,39%
same,FLAG surface expression,Furin [1]; 50 mM DCK,90%
same,red fluorescence (FLAG-CY3) of wt clones,Furin [2],red fluorescence is restored
same,second tag (FLAG) cell surface expression,[3],reconstitutes the second tag (FLAG) cell surface expression
same,inhibition of cleavage (FLAG reconstitution),[4],not inhibited by DCK

# Source: patent US20190048391A1, “COMPOSITIONS AND METHODS FOR IDENTIFYING ENZYME MODULATORS OR INHIBITORS” (priority 2013, published 2019)
